# Reference: ChEMBL document CHEMBL1137214, “11beta-alkyl-Delta9-19-nortestosterone derivatives: high-affinity ligands and potent partial agonists of the androgen receptor” (J Med Chem, 2004)
# What was measured:
# [1] = molecular target: T1, Androgen receptor (Homo sapiens, UniProt P10275); experiment: Inhibition of human androgen receptor expressed in Escherichia coli
# T1 sequence (P10275 whole entry): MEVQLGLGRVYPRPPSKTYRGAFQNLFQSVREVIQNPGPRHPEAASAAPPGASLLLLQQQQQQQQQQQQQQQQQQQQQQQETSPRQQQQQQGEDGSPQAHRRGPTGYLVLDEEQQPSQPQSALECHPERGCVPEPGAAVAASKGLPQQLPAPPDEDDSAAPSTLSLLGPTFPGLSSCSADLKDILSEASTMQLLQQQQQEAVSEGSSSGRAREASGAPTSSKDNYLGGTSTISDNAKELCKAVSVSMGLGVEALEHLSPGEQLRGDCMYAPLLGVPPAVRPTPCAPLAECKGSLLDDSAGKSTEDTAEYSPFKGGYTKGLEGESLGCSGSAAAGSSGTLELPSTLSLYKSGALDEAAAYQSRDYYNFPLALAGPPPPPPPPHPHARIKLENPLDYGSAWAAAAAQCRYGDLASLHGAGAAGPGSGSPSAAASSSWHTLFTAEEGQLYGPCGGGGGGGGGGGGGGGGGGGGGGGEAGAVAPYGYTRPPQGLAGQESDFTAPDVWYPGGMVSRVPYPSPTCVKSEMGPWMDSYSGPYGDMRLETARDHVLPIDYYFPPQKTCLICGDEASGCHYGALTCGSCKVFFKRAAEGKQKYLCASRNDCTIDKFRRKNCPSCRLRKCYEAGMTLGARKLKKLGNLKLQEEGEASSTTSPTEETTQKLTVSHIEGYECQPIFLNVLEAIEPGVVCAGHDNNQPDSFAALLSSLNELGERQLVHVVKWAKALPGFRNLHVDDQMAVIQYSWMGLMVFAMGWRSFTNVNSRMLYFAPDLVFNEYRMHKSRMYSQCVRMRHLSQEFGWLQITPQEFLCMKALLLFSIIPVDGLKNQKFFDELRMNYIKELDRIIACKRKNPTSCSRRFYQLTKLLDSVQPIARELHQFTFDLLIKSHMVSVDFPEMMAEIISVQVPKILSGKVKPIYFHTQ
# [2] = molecular target: T2, Glucocorticoid receptor (Homo sapiens, UniProt P04150); experiment: Inhibition of CHO-K1 cells expressing glucocorticoid receptor; format: cell-based
# T2 sequence (P04150 whole entry): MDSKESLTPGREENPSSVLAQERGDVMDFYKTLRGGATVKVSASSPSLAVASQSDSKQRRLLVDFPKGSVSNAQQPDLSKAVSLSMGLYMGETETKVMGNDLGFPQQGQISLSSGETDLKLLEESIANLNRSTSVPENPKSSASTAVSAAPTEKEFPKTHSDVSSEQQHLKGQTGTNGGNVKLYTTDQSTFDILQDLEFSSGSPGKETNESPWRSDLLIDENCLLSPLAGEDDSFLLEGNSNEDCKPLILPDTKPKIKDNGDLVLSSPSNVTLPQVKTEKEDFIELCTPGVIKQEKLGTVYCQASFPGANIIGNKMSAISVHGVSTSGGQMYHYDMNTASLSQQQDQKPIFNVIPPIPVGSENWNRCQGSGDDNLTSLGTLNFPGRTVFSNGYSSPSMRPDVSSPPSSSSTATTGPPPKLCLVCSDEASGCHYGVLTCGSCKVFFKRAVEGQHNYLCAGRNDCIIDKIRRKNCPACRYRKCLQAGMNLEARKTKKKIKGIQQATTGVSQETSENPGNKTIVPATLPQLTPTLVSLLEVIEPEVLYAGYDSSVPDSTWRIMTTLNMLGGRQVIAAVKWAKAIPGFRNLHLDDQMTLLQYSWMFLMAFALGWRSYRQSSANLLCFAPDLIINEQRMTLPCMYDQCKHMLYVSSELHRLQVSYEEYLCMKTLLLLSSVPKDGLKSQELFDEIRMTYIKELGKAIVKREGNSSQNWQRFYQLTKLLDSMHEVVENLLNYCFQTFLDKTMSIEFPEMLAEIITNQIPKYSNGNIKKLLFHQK
# [3] = molecular target: T1, Androgen receptor; experiment: Inhibition of AR-dimerization in CHO-K1 cells expressing human androgen receptor
Compound,IC50 [1] [nM],IC50 [2] [nM],IC50 [3] [nM]
CC[C@H]1C[C@@]2(C)C(CC[C@@H]2O)C2CCC3=CC(=O)CCC3=C21 (stereo partly drawn),2,1290,–
CCCCC[C@H]1C[C@@]2(C)C(CC[C@@H]2O)C2CCC3=CC(=O)CCC3=C21 (stereo partly drawn),0.1,125,0.009
CCCCCCCCCC[C@H]1C[C@@]2(C)C(CC[C@@H]2O)C2CCC3=CC(=O)CCC3=C21 (stereo partly drawn),0.8,1810,85
CCCCCCCC[C@H]1C[C@@]2(C)C(CC[C@@H]2O)C2CCC3=CC(=O)CCC3=C21 (stereo partly drawn),6.6,979,0.9
CCCCCCCCCCCC[C@H]1C[C@@]2(C)C(CC[C@@H]2O)C2CCC3=CC(=O)CCC3=C21 (stereo partly drawn),0.2,870,–
